Here are results for 7 compounds from PMC9575579 (European Journal of Medicinal Chemistry, 2022).

Marks after values point to notes of the source that are not given here.

The subject of one data set is SARS-CoV-2. The experiment in a line: microbe, parasite or virus in culture. To be noted: for EC50: Severe acute respiratory syndrome coronavirus 2, Vero, 72 h.
A further data set deals with Vero E6-GFP cells. To be noted: African green monkey, 2 µM.
For the next data set, the target named is SARS-CoV-2 M^pro (Severe acute respiratory syndrome coronavirus 2, UniProt P0DTD1). Briefly: biochemical. It counts as biochemical. The settings on record: for IC50: M^pro SARS-COV-2 IC50.
For a further data set, the target named is MERS-CoV M^pro (Middle East respiratory syndrome-related coronavirus, UniProt K9N7C7). The experiment in a line: biochemical. To be noted: for inhibition at 30 µM: read-out: % of inhibition of the M^pro at 30 μM (MERS).
Sequence of MERS-CoV M^pro (K9N7C7 3248-3553 limits assumed): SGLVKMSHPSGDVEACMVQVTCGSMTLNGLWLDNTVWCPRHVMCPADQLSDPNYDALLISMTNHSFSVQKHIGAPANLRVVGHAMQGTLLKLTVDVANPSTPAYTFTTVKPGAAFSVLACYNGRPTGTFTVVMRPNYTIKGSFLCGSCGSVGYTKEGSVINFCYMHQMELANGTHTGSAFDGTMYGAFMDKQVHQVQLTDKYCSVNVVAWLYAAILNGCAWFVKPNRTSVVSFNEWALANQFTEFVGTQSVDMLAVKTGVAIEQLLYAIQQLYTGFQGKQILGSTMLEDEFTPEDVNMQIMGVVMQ

Regarding `O=C(NCCc1ccccc1)C(=O)[C@H](C[C@@H]1CCNC1=O)NC(=O)[C@@H]1CCCN1C(=O)OCc1ccccc1` [9a, (S)-benzyl2-((S)-3,4-dioxo-1-((S)-2-oxopyrrolidin-3-yl)-4-(phenethylamino)butan-2ylcarbamoyl)pyrrolidine-1-carboxylate], in the data set on SARS-CoV-2, the “EC50 + CP100356 (2 μM)” value is given as “did not change”. In the data set on Vero E6-GFP cells, the “Residual cell viability at the highest concentration tested” value was >100 (100%) ^e.
Take `O=C(NCCc1ccccc1F)C(=O)[C@H](C[C@@H]1CCNC1=O)NC(=O)[C@@H]1CCCN1C(=O)OCc1ccccc1` [9b, (S)-benzyl2-((S)-4-(2-fluorophenethylamino)-3,4-dioxo-1-((S)-2-oxopyrrolidin-3-yl)butan-2-ylcarbamoyl)pyrrolidine-1-carboxylate]: the “M^pro SARS-COV-2 IC50” value at SARS-CoV-2 M^pro was “submicromolar range”.
Still for that read-out and setting: the value for `COc1ccccc1CCNC(=O)C(=O)[C@H](C[C@@H]1CCNC1=O)NC(=O)[C@@H]1CCCN1C(=O)OCc1ccccc1` [9c, (S)-benzyl2-((S)-4-(2-methoxyphenethylamino)-3,4-dioxo-1-((S)-2-oxopyrrolidin-3-yl)butan-2-ylcarbamoyl)pyrrolidine-1-carboxylate] was “submicromolar range”.
On to `O=C(NCc1ccccc1)C(=O)[C@H](C[C@@H]1CCNC1=O)NC(=O)[C@@H]1CCCN1C(=O)COc1ccc(Cl)cc1Cl` [9d, (S)–N-((S)-4-(benzylamino)-3,4-dioxo-1-((S)-2-oxopyrrolidin-3-yl)butan-2-yl)-1-(2-(2,4-dichlorophenoxy)acetyl)pyrrolidine-2-carboxamide], for which the “Residual cell viability at the highest concentration tested” value in the data set with Vero E6-GFP cells is listed as >100 (100%) ^e.
Same read-out and setting: the value for `O=C(NCCc1ccccc1)C(=O)[C@H](C[C@@H]1CCNC1=O)NC(=O)[C@@H]1CCCN1C(=O)COc1ccc(Cl)cc1Cl` [9e, (S)-1-(2-(2,4-dichlorophenoxy)acetyl)-N-((S)-3,4-dioxo-1-((S)-2-oxopyrrolidin-3-yl)-4-(phenethylamino)butan-2-yl)pyrrolidine-2-carboxamide] was >100 (100%) ^e.
For the compound `COc1ccc(CNC(=O)C(=O)[C@H](C[C@@H]2CCNC2=O)NC(=O)[C@@H]2CCCN2C(=O)COc2ccc(Cl)cc2Cl)c(OC)c1` [9f, (S)-1-(2-(2,4-dichlorophenoxy)acetyl)-N-((S)-4-(2,4-dimethoxybenzylamino)-3,4-dioxo-1-((S)-2-oxopyrrolidin-3-yl)butan-2-yl)pyrrolidine-2-carboxamide], the EC50 with SARS-CoV-2 is greater than 100 µM. The 50% inhibitory concentration (IC50) on SARS-CoV-2 M^pro is 1.93 ± 0.16 µM; on MERS-CoV M^pro it was greater than 30 µM. Moreover, the inhibition at 30 µM on MERS-CoV M^pro was 59%.
In the data set with SARS-CoV-2, `O=C(NCc1ccccc1C(F)(F)F)C(=O)[C@H](C[C@@H]1CCNC1=O)NC(=O)[C@@H]1CCCN1C(=O)COc1ccc(Cl)cc1Cl` [9h, (S)-1-(2-(2,4-dichlorophenoxy)acetyl)-N-((S)-3,4-dioxo-1-((S)-2-oxopyrrolidin-3-yl)-4-(2-(trifluoromethyl)benzylamino)butan-2-yl)pyrrolidine-2-carboxamide] displayed a concentration for a half-maximal effect (EC50) greater than 100 µM. For the same compound, the IC50 on SARS-CoV-2 M^pro and on MERS-CoV M^pro was greater than 30 µM throughout. For the same compound, the inhibition at 30 µM at SARS-CoV-2 M^pro (read-out: % of inhibition of the M^pro at 30 μM (SARS-CoV-2)) came out at 57%; on MERS-CoV M^pro, 73%.

As usually defined, the EC50 is the concentration giving half of the maximal effect. Low values mean an effect from little substance, high ones a need for much substance. As a reminder, the IC50 is the point on the concentration scale where inhibition reaches its midpoint. The low end stands for higher potency, the high end for lower potency. As usually defined, the inhibition is how much of the control response was suppressed.
